Reference: paper PMC10177692, “Novel topoisomerase II/EGFR dual inhibitors: design, synthesis and docking studies of naphtho[2′,3′:4,5]thiazolo[3,2-a]pyrimidine hybrids as potential anticancer agents with apoptosis inducing activity” (Journal of Enzyme Inhibition and Medicinal Chemistry, 2023)

How the values were obtained:
Format in all cases: cell-based, human
p53 = p53 level ELISA in MCF-7 cells; conditions: for p53 FLD: MCF-7, at IC50, fold of control cells; for p53 Conc.(pg/ml): control 257 ± 19.1
Description: p53 level was determined in MCF-7 cell line using Human p53 ELISA Kit (Sigma Aldrich, St. Louis, MO, USA). The cells were lysed using cell extraction buffer. Cell lysate was diluted with standard diluent buffer, then added to p53 monoclonal antibody pre-coated 96-wells plate. The plate incubated for 2 h at room temperature. Anti-p53 detection antibody was added to the plate and re-incubated at room temperature for 1 h. The plate washed four times using wash buffer followed by addition of anti-rabbit IgG-Horseradish Peroxidase (HRP) working solution. The plate incubated at room temperature for 30 min. Chromogen TMB (tetramethylbenzidine) was added to induce colour reaction. The absorbance of the plate was read at 450 nm using microplate reader (Bio-Rad Laboratories, Hercules, CA, USA). Three independent experiments were performed for each compound and Mean ± SE were calculated.

caspase-7 = experiment: Caspase-7 ELISA in MCF-7 cells; conditions: for Caspase 7 FLD: MCF-7, at IC50, fold of control; for Caspase 7 Conc.(ng/ml): MCF-7, at IC50, control 0.45 ± 0.03
Description: The effect of 6a, 6c and 6i hybrids on caspase-7 and −9 levels in MCF-7 cell line was measured using Human Caspase-7 ELISA Kit (BioVision Inc., Milpitas, CA 95035 USA) and Human Caspase-9 ELISA Kit (EIA-4860, DRG, USA), respectively, and according to the manufacturer’s instructions. The results were expressed as Mean ± SE of three independent experiments.

MCF-7 cells = experiment: Annexin V-FITC/PI staining assay; set-up: Apoptosis Total / Apoptosis Early / Apoptosis Late / Necrosis: unit not given here; conditions: for increase in cell necrosis compared to control / increase of cell population in early apoptotic stage compared to control / increase of late apoptotic cell population compared to control: MCF-7, at IC50; for Apoptosis Late / Apoptosis Early / Necrosis / Apoptosis Total: MCF-7, at IC50, 24 h; for Apoptosis Late: control 0.15; for Apoptosis Early: control 0.38; for Necrosis: control 1.36; for Apoptosis Total: control 1.89
Description: Cells underwent three washing cycles using ice cold PBS, then suspended in PBS. Cell apoptosis was detected by Annexin V-FITC Apoptosis Detection Kit (BioVisionResearch Products, USA). The cells were stained using PI staining solution, Annexin V-FITC and incubated for 15 min at room temperature in a dark place. Cells were investigated by flow cytometry (Ex = 488 nm; Em = 530 nm) using FACS calibre (Becton Dickinson, Heidelberg, Germany)[48].

SMILES | p53 FLD (p53) [fold] | p53 Conc.(pg/ml) (p53; MCF-7, at IC50) [pg/mL] | Caspase 7 FLD (caspase-7) [fold] | Caspase 7 Conc.(ng/ml) (caspase-7) [ng/mL] | increase in cell necrosis compared to control (MCF-7 cells) [folds] | increase of cell population in early apoptotic stage compared to control (MCF-7 cells) [folds] | increase of late apoptotic cell population compared to control (MCF-7 cells) [folds] | Apoptosis Late (MCF-7 cells) | Apoptosis Early (MCF-7 cells) | Necrosis (MCF-7 cells) | Apoptosis Total (MCF-7 cells) | increase in p53 level compared to Dox treated cells (p53; MCF-7, at IC50) [fold]
COc1ccc(-c2nc3sc4c(n3c(=O)c2C#N)C(=O)c2ccccc2C4=O)cc1 [Compound 6a, 2–(4-Methoxyphenyl)-4,6,11-trioxo-6,11-dihydro-4H-naphtho[2′,3′:4,5]-thiazolo[3,2-a]pyrimidine-3-carbonitrile] | 3.6 | 922 ± 37.5 | 14.93 | 6.72 ± 0.23 | 6.78 | 13.84 | 126.13 | 18.92 | 5.26 | 9.23 | 33.41 | 
N#Cc1c(-c2ccc([N+](=O)[O-])cc2)nc2sc3c(n2c1=O)C(=O)c1ccccc1C3=O [Compound 6i, 2–(4-Nitrophenyl)-4,6,11-trioxo-6,11-dihydro-4H-naphtho[’',’':4,5]thiazolo-[3,2-a]pyrimidine-3-carbonitrile] | 5 | 1285 ± 29.9 | 20.41 | 9.20 ± 0.87 | 10.52 | 9.57 | 182.06 | 27.31 | 3.64 | 14.31 | 45.26 | 1.2
